# Experimental data from patent US9540323B2 (BRISTOL-MYERS SQUIBB COMPANY, priority 2012, dated 2017).
# Counter-ions that a name gives are not always drawn.
# Target: cloned human P2Y1 receptors (Homo sapiens (Human), UniProt P47900)
# Assay: Binding Assay B - Scintillation Proximity Assay (SPA) for P2Y1 binding, [33P] 2MeS-ADP
# Conditions: SPA, 0.3 nM [33P] 2MeS-ADP, Cheng-Prusoff; read-out: P2Y1 Ki (nM) using binding assay B
# Method: Binding Assay B—Scintillation Proximity Assay (SPA) for P2Y1 Binding
# A SPA membrane binding assay was used to identify inhibitors of [^33P] […] Reactions were allowed to proceed to completion at room temperature for 1 hour followed by centrifugation of the plate for 5 min. About 40 μL of the aqueous solution was aspirated. Plates were sealed and the [^33P]
# Sequence of cloned human P2Y1 receptors (P47900 whole entry): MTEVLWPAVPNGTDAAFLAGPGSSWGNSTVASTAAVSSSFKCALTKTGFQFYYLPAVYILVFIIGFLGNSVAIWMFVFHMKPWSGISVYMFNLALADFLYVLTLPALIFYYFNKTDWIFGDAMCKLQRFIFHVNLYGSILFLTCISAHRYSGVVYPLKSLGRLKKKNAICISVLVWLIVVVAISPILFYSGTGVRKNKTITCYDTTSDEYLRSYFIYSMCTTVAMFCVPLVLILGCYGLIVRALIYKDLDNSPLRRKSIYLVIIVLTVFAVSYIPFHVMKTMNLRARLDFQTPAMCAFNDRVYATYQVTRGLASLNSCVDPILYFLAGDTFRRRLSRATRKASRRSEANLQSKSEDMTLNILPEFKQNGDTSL
row,Compound,Ki
1,"CC(C)(C)c1ccc(NC(=O)Nc2ccccc2N2CC(C)(C)c3ccccc32)cc1 [Comparator 1, reference compound]",12.9 nM
2,"CC1(C)CN(c2ccccc2NC(=O)Nc2ccc(OC(F)(F)F)cc2)c2ccccc21 [Comparator 2, reference compound]",8.7 nM
3,"CC(C)(C)c1ccccc1Oc1ncccc1NC(=O)Nc1ccccc1N1CC(C)(C)c2ccccc21 [Comparator 3, reference compound]",759 nM
4,"CC1(C)CN(c2ccccc2NC(=O)Nc2nc3ccc(F)cc3s2)c2c(O)ccc(Br)c21 [Example 1, 1-(2-(4-Bromo-7-hydroxy-3,3-dimethylindolin-1-yl)phenyl)-3-(6-fluorobenzo[d]thiazol-2-yl)urea]",10.8 nM
5,"CC1(C)CN(c2ccccc2NC(=O)Nc2ccc(OC(F)(F)F)cc2)c2c(O)cc(F)c(-c3ccc(C(F)(F)F)cc3)c21 [Example 222, 1-(2-(5-Fluoro-7-hydroxy-3,3-dimethyl-4-(4-(trifluoromethyl)phenyl)indolin-1-yl)phenyl)-3-(4-(trifluoromethoxy)phenyl)urea]",35 nM
6,"CC1(C)CN(c2ccccc2NC(=O)Nc2csc(C(F)(F)F)n2)c2c(O)cc(F)c(-c3ccc(Cl)cc3)c21 [Example 223, 1-(2-(4-(4-Chlorophenyl)-5-fluoro-7-hydroxy-3,3-dimethylindolin-1-yl)phenyl)-3-(2-(trifluoromethyl)thiazol-4-yl)urea]",34.4 nM

# Test system: human platelet rich plasma (PRP)
# Assay: ADP induced platelet aggregation assay
# Conditions: Homo sapiens, Platelet, 5 min, read-out: PA IC50 (μM) @ 10 μM ADP, human PRP, 10 μM ADP, AUC at 5 minute
row,Compound,IC50
1,"CC(C)(C)c1ccc(NC(=O)Nc2ccccc2N2CC(C)(C)c3ccccc32)cc1 [Comparator 1, reference compound]",> 20 µM
2,"CC1(C)CN(c2ccccc2NC(=O)Nc2ccc(OC(F)(F)F)cc2)c2ccccc21 [Comparator 2, reference compound]",> 20 µM
3,"CC(C)(C)c1ccccc1Oc1ncccc1NC(=O)Nc1ccccc1N1CC(C)(C)c2ccccc21 [Comparator 3, reference compound]",> 20 µM
4,"CC1(C)CN(c2ccccc2NC(=O)Nc2nc3ccc(F)cc3s2)c2c(O)ccc(Br)c21 [Example 1, 1-(2-(4-Bromo-7-hydroxy-3,3-dimethylindolin-1-yl)phenyl)-3-(6-fluorobenzo[d]thiazol-2-yl)urea]",0.47 µM
5,"CCC1(CC)CN(c2ccccc2NC(=O)Nc2nc3ccc(F)cc3s2)c2c(O)ccc(F)c21 [Example 32, 1-(2-(3,3-Diethyl-4-fluoro-7-hydroxyindolin-1-yl)phenyl)-3-(6-fluorobenzo[d]thiazol-2-yl)urea]",0.37 µM
6,"CC1(C)CN(c2ccccc2NC(=O)Nc2ccc(OC(F)(F)F)cc2)c2c(O)ccc(-c3ccc(F)nc3)c21 [Example 115, 1-(2-(4-(6-Fluoropyridin-3-yl)-7-hydroxy-3,3-dimethylindolin-1-yl)phenyl)-3-(4-(trifluoromethoxy)phenyl) urea]",0.31 µM
7,"COc1cncc(-c2ccc(O)c3c2C(C)(C)CN3c2ccccc2NC(=O)Nc2ccc(OC(F)(F)F)cc2)c1 [Example 118, 1-(2-(7-Hydroxy-4-(5-methoxypyridin-3-yl)-3,3-dimethylindolin-1-yl)phenyl)-3-(4-(trifluoromethoxy)phenyl) urea]",0.6 µM
8,"CC1(C)CN(c2ccccc2NC(=O)Nc2ccc(OC(F)(F)F)cc2)c2c(O)ccc(-c3ccc(Cl)cn3)c21 [Example 122, 1-(2-(4-(5-Chloropyridin-2-yl)-7-hydroxy-3,3-dimethylindolin-1-yl)phenyl)-3-(4-(trifluoromethoxy)phenyl)urea]",0.51 µM
9,"CC1(C)CN(c2ccccc2NC(=O)Nc2ccc(OC(F)(F)F)cc2)c2c(O)ccc(-c3nc4ccc(Cl)cc4s3)c21 [Example 136, 1-(2-(4-(6-Chlorobenzo[d]thiazol-2-yl)-7-hydroxy-3,3-dimethylindolin-1-yl)phenyl)-3-(4-(trifluoromethoxy)phenyl)urea]",0.5 µM
10,"CC1(C)CN(c2ccccc2NC(=O)Nc2nc3ccc(F)cc3s2)c2c(O)ccc(-c3nc4ccc(Cl)cc4s3)c21 [Example 137, 1-(2-(4-(6-Chlorobenzo[d]thiazol-2-yl)-7-hydroxy-3,3-dimethylindolin-1-yl)phenyl)-3-(6-fluorobenzo[d]thiazol-2-yl)urea]",1.06 µM
11,"CC1(C)CN(c2ccccc2NC(=O)Nc2nc3ccc(F)cc3s2)c2c(O)cc(F)c(-c3nc4cc(Cl)ccc4s3)c21 [Example 138, 1-(2-(4-(5-Chlorobenzo[d]thiazol-2-yl)-5-fluoro-7-hydroxy-3,3-dimethylindolin-1-yl)phenyl)-3-(6-fluorobenzo[d]thiazol-2-yl)urea]",0.47 µM
12,"CC1(C)CN(c2ccccc2NC(=O)Nc2nc3ccc(Cl)cc3s2)c2c(O)cc(F)c(-c3nc4ccc(F)cc4s3)c21 [Example 139, 1-(6-Chlorobenzo[d]thiazol-2-yl)-3-(2-(5-fluoro-4-(6-fluorobenzo[d]thiazol-2-yl)-7-hydroxy-3,3-dimethylindolin-1-yl)phenyl)urea]",0.57 µM
13,"CC1(C)CN(c2ccccc2NC(=O)Nc2nc3ccc(F)cc3s2)c2c(O)cc(F)c(-c3ccc(Cl)s3)c21 [Example 140, 1-(2-(4-(5-Chlorothiophen-2-yl)-5-fluoro-7-hydroxy-3,3-dimethylindolin-1-yl)phenyl)-3-(6-fluorobenzo[d]thiazol-2-yl)urea]",0.17 µM
14,"CC1(C)CN(c2ccccc2NC(=O)Nc2nc3ccc(Cl)nc3s2)c2c(O)cc(F)c(-c3nc4cc(Cl)ccc4s3)c21 [Example 141, 1-(2-(4-(5-Chlorobenzo[d]thiazol-2-yl)-5-fluoro-7-hydroxy-3,3-dimethylindolin-1-yl)phenyl)-3-(5-chlorothiazolo[5,4-b]pyridin-2-yl)urea]",0.55 µM
15,"CC1(C)CN(c2ccccc2NC(=O)Nc2ccc(OC(F)(F)F)cc2)c2c(O)cc(F)c(-c3ccc(Cl)s3)c21 [Example 142, 1-(2-(4-(5-Chlorothiophen-2-yl)-5-fluoro-7-hydroxy-3,3-dimethylindolin-1-yl)phenyl)-3-(4-(trifluoromethoxy)phenyl)urea]",0.13 µM
16,"CC1(C)CN(c2ccccc2NC(=O)Nc2nc3ccc(Cl)nc3s2)c2c(O)cc(F)c(-c3nc4ccc(F)cc4s3)c21 [Example 143, 1-(5-Chlorothiazolo[5,4-b]pyridin-2-yl)-3-(2-(5-fluoro-4-(6-fluorobenzo[d]thiazol-2-yl)-7-hydroxy-3,3-dimethylindolin-1-yl)phenyl)urea]",0.33 µM
17,"CC1(C)CN(c2ccccc2NC(=O)Nc2nc3ccc(Cl)nc3s2)c2c(O)cc(F)c(-c3ccc(Cl)s3)c21 [Example 145, 1-(5-Chlorothiazolo[5,4-b]pyridin-2-yl)-3-(2-(4-(5-chlorothiophen-2-yl)-5-fluoro-7-hydroxy-3,3-dimethylindolin-1-yl)phenyl)urea]",0.13 µM
18,"CC1(C)CN(c2ccccc2NC(=O)Nc2nc3ccc(Cl)cc3s2)c2c(O)cc(F)c(-c3nc4cc(Cl)ccc4s3)c21 [Example 156, 1-(6-Chlorobenzo[d]thiazol-2-yl)-3-(2-(4-(5-chlorobenzo[d]thiazol-2-yl)-5-fluoro-7-hydroxy-3,3-dimethylindolin-1-yl)phenyl)urea]",0.97 µM
19,"CC1(C)CN(c2ccccc2NC(=O)Nc2ccc(OC(F)(F)F)cc2)c2c(O)cc(F)c(-c3ncc(Br)cn3)c21 [Example 166, 1-(2-(4-(5-Bromopyrimidin-2-yl)-5-fluoro-7-hydroxy-3,3-dimethylindolin-1-yl)phenyl)-3-(4-(trifluoromethoxy)phenyl)urea]",1.25 µM
20,"CC1(C)CN(c2ccccc2NC(=O)Nc2csc(Cl)n2)c2c(O)cc(F)c(-c3nc4cc(Cl)ccc4s3)c21 [Example 167, 1-(2-(4-(5-Chlorobenzo[d]thiazol-2-yl)-5-fluoro-7-hydroxy-3,3-dimethylindolin-1-yl)phenyl)-3-(2-chlorothiazol-4-yl)urea]",0.47 µM
21,"CC1(C)CN(c2ccccc2NC(=O)Nc2csc(Cl)n2)c2c(O)cc(F)c(-c3ccc(C(F)(F)F)cn3)c21 [Example 169, 1-(2-Chlorothiazol-4-yl)-3-(2-(5-fluoro-7-hydroxy-3,3-dimethyl-4-(5-(trifluoromethyl)pyridin-2-yl)indolin-1-yl)phenyl)urea]",0.1 µM
22,"CC1(C)CN(c2ccccc2NC(=O)Nc2nc3ccc(Cl)cc3s2)c2c(O)ccc(-c3nc4cc(F)ccc4s3)c21 [Example 172, 1-(6-Chlorobenzo[d]thiazol-2-yl)-3-(2-(4-(5-fluorobenzo[d]thiazol-2-yl)-7-hydroxy-3,3-dimethylindolin-1-yl)phenyl)urea, TFA]",0.26 µM
23,"CC1(C)CN(c2ccccc2NC(=O)Nc2ccc(OC(F)(F)F)cc2)c2c(O)c(F)cc(-c3nc4cc(Cl)ccc4s3)c21 [Example 177, 1-(2-(4-(5-Chlorobenzo[d]thiazol-2-yl)-6-fluoro-7-hydroxy-3,3-dimethylindolin-1-yl)phenyl)-3-(4-(trifluoromethoxy)phenyl)urea]",2.3 µM
24,"COC(=O)c1ccc(-c2c(F)cc(O)c3c2C(C)(C)CN3c2ccccc2NC(=O)Nc2ccc(OC(F)(F)F)cc2)cc1 [Example 244, Methyl 4-(5-fluoro-7-hydroxy-3,3-dimethyl-1-(2-(3-(4-(trifluoromethoxy)phenyl)ureido)phenyl)indolin-4-yl)benzoate]",0.3 µM
25,"CC1(C)CN(c2ccccc2NC(=O)Nc2ccc(OC(F)(F)F)cc2)c2c(O)cc(F)c(-c3cc(C(F)(F)F)n[nH]3)c21 [Example 275, 1-(2-(5-Fluoro-7-hydroxy-3,3-dimethyl 4-(3-(trifluoromethyl)-1H-pyrazol-5-yl)indolin-1-yl)phenyl)-3-(4-(trifluoromethoxy)phenyl)urea]",5.69 µM

# Same assay, conditions: read-out: PA IC50 (μM) @ 10 μM ADP; human PRP, 10 μM ADP, AUC at 5 minute
row,Compound,IC50
1,"CC1(C)CN(c2ccccc2NC(=O)Nc2nc3ccc(F)cc3s2)c2c(O)cc(F)c(-c3ccc(F)cc3)c21 [Example 219, 1-(2-(5-Fluoro-4-(4-fluorophenyl)-7-hydroxy-3,3-dimethylindolin-1-yl)phenyl)-3-(6-fluorobenzo[d]thiazol-2-yl)urea]",0.36 µM
2,"CC1(C)CN(c2ccccc2NC(=O)Nc2ccc(OC(F)(F)F)cc2)c2c(O)cc(F)c(-c3ccc(Cl)cc3)c21 [Example 220, 1-(2-(4-(4-Chlorophenyl)-5-fluoro-7-hydroxy-3,3-dimethylindolin-1-yl)phenyl)-3-(4-(trifluoromethoxy)phenyl)urea]",0.24 µM
3,"CC1(C)CN(c2ccccc2NC(=O)Nc2csc(Cl)n2)c2c(O)cc(F)c(-c3ccc(Cl)cc3)c21 [Example 221, 1-(2-(4-(4-Chlorophenyl)-5-fluoro-7-hydroxy-3,3-dimethylindolin-1-yl)phenyl)-3-(2-chlorothiazol-4-yl)urea]",0.13 µM
